Experimental findings from US6309842A, “Use of modified tethers in screening compound libraries” (Glaxo Wellcome Inc., priority 1997, dated 2001) are described below.

The data set has as its target T1, STE2 receptor (Saccharomyces cerevisiae, UniProt D6VTK4).
T1 construct: expressed in transfected cells; host or cells: yeast strain ARY84 (Δste2::ura3, plasmid pRS416(URA3)-STE2)
T1 sequence (D6VTK4 1-431): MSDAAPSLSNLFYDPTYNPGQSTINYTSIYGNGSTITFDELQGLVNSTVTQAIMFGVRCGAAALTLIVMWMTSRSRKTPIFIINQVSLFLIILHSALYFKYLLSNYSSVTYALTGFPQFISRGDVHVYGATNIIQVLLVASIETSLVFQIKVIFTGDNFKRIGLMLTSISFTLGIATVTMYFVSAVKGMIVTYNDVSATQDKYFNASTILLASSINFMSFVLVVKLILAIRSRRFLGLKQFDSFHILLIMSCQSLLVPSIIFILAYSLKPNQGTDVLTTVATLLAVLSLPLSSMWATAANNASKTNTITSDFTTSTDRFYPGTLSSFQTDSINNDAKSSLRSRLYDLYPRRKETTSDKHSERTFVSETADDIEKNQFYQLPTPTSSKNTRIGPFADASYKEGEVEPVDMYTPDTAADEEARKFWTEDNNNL
The experiment in a line: Bead tether modification by yeast acid phosphatase, FACScan of 3E7-coated beads. The class given is cell-based. To be noted: 500 nM alpha factor, beads exposed 18 hr, 200 nM AF12402. The source says: This system employs yeast ARI 84 reporter cells bearing an STE2 receptor and containing a reporter construct in which a pho3 gene is linked to a FUS1 promoter. Acid phosphatase expressed by the yeast is used to dephosphorylate the substrate phospho-YGGFL-linker-biotin. (SEQ ID NO:25) As a result of dephosphorylation, the substrate can bind to a 3E7 antibody tether. The biotinylated portion of modified tethers is stained using a PE- or alkaline-phosphatase-conjugated streptavidin. Complexes with stained tethers are sorted by FACS™.
ARY84 culture from a fresh, 4-10 day old patch was grown in 3 ml SC minimal media minus Trp, Ura, Leu, pH adjusted to 6.15 using MES buffer 200 mM final at @30C overnight in a tube rotator. At A600, the growing culture was diluted to 0.1 A600 in duplicate in pH 6.15 SC media minus Trp, Ura, Leu. One diluted culture was induced by addition of alpha factor to 500 nM final concentration. 0.1 ml of the appropriate diluted induced or uninduced culture was added to wells of a BSA-blocked 96-well microtitre plate. […]
A desired amount of monobeads (at about 1×10^7 beads/ml) was washed once in 0.5 ml methanol, and twice in 1 ml PBS, pH 7.5. […] The density of beads was determined and about 1×10^5 beads were added to each well (after washing with PBS 0.1% BSA to remove the azide). […]
Staining was analyzed by running the beads through a Becton Dickinson FACScan™ machine. […]

For α-factor, the “FACScan shift of beads, induced vs not induced yeast” value came out at 10 fold.
